Laboratory results as given in paper PMC9033183 (RSC Advances, 2021).
Values joined by “and” are separate entries in the source; they are usually repeats but may differ in a detail not shown here. Equal entries are not always repeated. “Also recorded” adds a separate entry of the source.

Tests used:
[1] = molecular target: aldose reductase (ALR2) (Bos taurus, UniProt P16116); experiment: Aldose reductase; type: biochemical, calf; conditions: for selectivity for ALR2 over ALR1, result in words: ALR2 IC50 compared with ALR1 percent inhibition
[2] = molecular target: aldehyde reductase (ALR1) (Bos taurus, UniProt Q3ZCJ2); experiment: Aldehyde reductase; type: biochemical, calf; conditions: for IC50: ALR1 IC50(μM) ± SEM, enzyme partially purified from calf kidneys, triplicate
Chain of aldehyde reductase (ALR1) (Q3ZCJ2 whole entry): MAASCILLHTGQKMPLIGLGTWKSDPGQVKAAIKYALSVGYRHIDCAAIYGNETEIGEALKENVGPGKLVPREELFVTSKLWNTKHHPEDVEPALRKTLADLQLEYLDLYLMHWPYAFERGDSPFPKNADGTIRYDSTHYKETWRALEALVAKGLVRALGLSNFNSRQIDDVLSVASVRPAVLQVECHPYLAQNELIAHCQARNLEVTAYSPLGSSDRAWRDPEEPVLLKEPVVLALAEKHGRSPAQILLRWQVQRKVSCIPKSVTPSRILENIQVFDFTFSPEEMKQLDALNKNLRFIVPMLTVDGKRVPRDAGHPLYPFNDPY

SMILES | ALR2 inhibitory activity, result in words [1] | ALR1 inhibitory activity, result in words [2] | IC50 [2] | selectivity for ALR2 over ALR1, result in words [1]
CC(=N/N=c1\scc(-c2ccc(Br)cc2)n1-c1ccccc1C)C12CC3CC(CC(C3)C1)C2 [Compound 6c, (2Z)-2-((1-(adamantan-1-yl)ethylidene)hydrazono)-4-(4-bromophenyl)-3-(o-tolyl)-2,3-dihydrothiazole] | active inhibitors | active inhibitors | 4.07 ± 2.35 µM | –
CC(=N/N=c1\scc(-c2ccc(Br)cc2)n1-c1ccccc1)C12CC3CC(CC(C3)C1)C2 [Compound 6a, (2Z)-2-((1-(adamantan-1-yl)ethylidene)hydrazono)-4-(4-bromophenyl)-3-phenyl-2,3-dihydrothiazole] | active inhibitors | active inhibitors | 3.29 ± 1.47 µM | –
C/C(=N/N=c1/scc(-c2ccc(Br)cc2)n1-c1c(C)cccc1C)c1ccc2c(c1)OCCO2 [Compound 7c, (Z)-4-(4-bromophenyl)-2-((E)-(1-(2,3-dihydrobenzo[b][1,4]dioxin-6-yl)ethylidene) hydrazono)-3-(2,6-dimethylphenyl)-2,3-dihydrothiazole] | – | – | – | selective ALR2 inhibitors
CC(=N/N=c1\scc(-c2ccc(Br)cc2)n1-c1cccc2ccccc12)C12CC3CC(CC(C3)C1)C2 [Compound 6b, (2Z)-2-((1-(adamantan-1-yl)ethylidene)hydrazono)-4-(4-bromophenyl)-3-(naphthalen-1-yl)-2,3-dihydrothiazole] | active inhibitors | active inhibitors | 4.93 ± 1.86 µM | –
O=[N+]([O-])c1ccc(-c2cs/c(=N/N=C\c3c[nH]c4ccccc34)n2Cc2ccccc2)cc1 [Compound 8e, (Z)-2-((E)-((1H-indol-3-yl)methylene)hydrazono)-3-benzyl-4-(4-nitrophenyl)-2,3-dihydrothiazole] | active inhibitors | active inhibitors | 2.94 ± 1.34 µM | –
COc1cccc(-n2c(-c3ccc([N+](=O)[O-])cc3)cs/c2=N/N=C\c2c[nH]c3ccccc23)c1 [Compound 8f, (Z)-2-((E)-((1H-indol-3-yl)methylene)hydrazono)-3-(3-methoxyphenyl)-4-(4-nitrophenyl)-2,3-dihydrothiazole] | – | – | – | selective ALR2 inhibitor
CC(=N/N=c1\scc(-c2ccc(Cl)cc2)n1Cc1ccccc1)C12CC3CC(CC(C3)C1)C2 [Compound 6e, (2Z)-2-((1-(adamantan-1-yl)ethylidene)hydrazono)-3-benzyl-4-(4-chlorophenyl)-2,3-dihydrothiazole] | – | – | – | selective ALR2 inhibitors; also recorded: good inhibitory activity and selectively against ALR2
C/C(=N/N=c1/scc(-c2ccc(Br)cc2)n1Cc1ccccc1)c1ccc2c(c1)OCCO2 [Compound 7b, (Z)-3-benzyl-4-(4-bromophenyl)-2-((E)-(1-(2,3-dihydrobenzo[b][1,4]dioxin-6-yl)ethylidene)hydrazono)-2,3-dihydrothiazole] | – | – | – | selective ALR2 inhibitors; also recorded: excellent selectivity; also recorded: considerably selective activity against ARL2; also recorded: significantly selective
CC(=N/N=c1\scc(-c2ccc(Cl)cc2)n1-c1c(C)cccc1C)C12CC3CC(CC(C3)C1)C2 [Compound 6f, (2Z)-2-((1-(adamantan-1-yl)ethylidene)hydrazono)-4-(4-chlorophenyl)-3-(2,6-dimethylphenyl)-2,3-dihydrothiazole] | – | – | – | selective ALR2 inhibitors; also recorded: good inhibitory activity and selectively against ALR2
C/C(=N/N=c1/scc(-c2ccc(Br)cc2)n1-c1ccccc1)c1ccc2c(c1)OCCO2 [Compound 7a, (Z)-4-(4-bromophenyl)-2-((E)-(1-(2,3-dihydrobenzo[b][1,4]dioxin-6-yl)ethylidene) hydrazono)-3-phenyl-2,3-dihydrothiazole] | – | – | – | selective ALR2 inhibitors
CC(=N/N=c1\scc(-c2ccc(Br)cc2)n1-c1c(C)cccc1C)C12CC3CC(CC(C3)C1)C2 [Compound 6d, (2Z)-2-((1-(adamantan-1-yl)ethylidene)hydrazono)-4-(4-bromophenyl)-3-(2,6-dimethylphenyl)-2,3-dihydrothiazole] | – | – | – | selective ALR2 inhibitors; also recorded: good inhibitory activity and selectively against ALR2

Now from value to molecule, other results behind:

ALR2 inhibitory activity, result in words [1] | ALR1 inhibitory activity, result in words [2] | IC50 [2] | SMILES | selectivity for ALR2 over ALR1, result in words [1]
active inhibitors | active inhibitors | 2.94 ± 1.73 µM | C/C(=N/N=c1/scc(-c2ccc(Cl)cc2)n1-c1ccc(F)cc1)c1ccc2c(c1)OCCO2 [Compound 7h, (Z)-4-(4-chlorophenyl)-2-((E)-(1-(2,3-dihydrobenzo[b][1,4]dioxin-6-yl)ethylidene) hydrazono)-3-(4-fluorophenyl)-2,3-dihydrothiazole] | –
weak activity | weak activity | – | COc1cccc(-n2c(-c3ccc(Br)cc3)cs/c2=N/N=C(/C)c2ccc3c(c2)NC(=O)CO3)c1 [Compound 5b, 6-((E)-1-((Z)-(4-(4-bromophenyl)-3-(3-methoxyphenyl)thiazol-2(3H)-ylidene) hydrazono)ethyl)-2H-benzo[b][1,4]oxazin-3(4H)-one] | –
active inhibitors | active inhibitors | 2.2 ± 0.92 µM | C/C(=N/N=c1/scc(-c2ccc(Cl)cc2)n1Cc1ccccc1)c1ccc2c(c1)OCCO2 [Compound 7i, (Z)-3-benzyl-4-(4-chlorophenyl)-2-((E)-(1-(2,3-dihydrobenzo[b][1,4]dioxin-6-yl)ethylidene)hydrazono)-2,3-dihydrothiazole] | –
active inhibitors | active inhibitors | 3.13 µM and 3.24 µM | COc1cccc(-n2c(-c3ccc([N+](=O)[O-])cc3)cs/c2=N/N=C(/C)c2ccc3c(c2)NC(=O)CO3)c1 [Compound 5f, 6-((E)-1-((Z)-(3-(3-methoxyphenyl)-4-(4-nitrophenyl)thiazol-2(3H)-ylidene) hydrazono)ethyl)-2H-benzo[b][1,4]oxazin-3(4H)-one] | –
weak activity | weak activity | – | COc1cccc(-n2c(-c3ccc(Cl)cc3)cs/c2=N/N=C(/C)c2ccc3c(c2)NC(=O)CO3)c1 [Compound 5j, 6-((E)-1-((Z)-(4-(4-chlorophenyl)-3-(3-methoxyphenyl)thiazol-2(3H)-ylidene) hydrazono)ethyl)-2H-benzo[b][1,4]oxazin-3(4H)-one] | –
active inhibitors | active inhibitors | 3.14 ± 0.41 µM | C/C(=N/N=c1/scc(-c2ccc(Cl)cc2)n1-c1ccccc1)c1ccc2c(c1)OCCO2 [Compound 7g, (Z)-4-(4-chlorophenyl)-2-((E)-(1-(2,3-dihydrobenzo[b][1,4]dioxin-6-yl)ethylidene) hydrazono)-3-phenyl-2,3-dihydrothiazole] | –
